Results: PubChem BioAssay AID296 (DTP/NCI, 2004)
Where “and” joins values, the source holds several entries; their conditions need not be identical. Equal entries are not always repeated. Records with an inconclusive call do not appear.

System: MX-1 breast xenograft, nude mice, tumor weight T/C
Test: NCI In Vivo Anticancer Drug Screen. Data for tumor model Human Mammary Carcinoma MX-1 Xenograft (intrarenal inoculation) in NU/NU Swiss (nude) mice
Conditions: endpoint: mean tumor weight change, higher = larger tumour
Outline: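 Read-out: treated (T) over vehicle control (C) ratio of survival or tumor size. Dosing in animals carrying the transplanted tumor.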

[1] = dose: 50.0 mg/kg/injection, schedule: Q04DX003 (sc), vehicle: saline with Tween-80
[2] = dose: 150.0 mg/kg/injection, schedule: Q04DX003 (sc), vehicle: saline with Tween-80
[3] = dose: 300.0 mg/kg/injection, schedule: Q04DX003 (sc), vehicle: saline with Tween-80
[4] = dose: 600.0 mg/kg/injection, schedule: Q04DX003 (sc), vehicle: saline with Tween-80
[5] = dose: 50.0 mg/kg/injection, schedule: Q01DX010 (sc), vehicle: saline
[6] = dose: 100.0 mg/kg/injection, schedule: Q01DX010 (sc), vehicle: saline
[7] = dose: 300.0 mg/kg/injection, schedule: Q04DX003 (sc), vehicle: Klucel (hydroxypropylcellulose) (HPC)
[8] = dose: 600.0 mg/kg/injection, schedule: Q04DX003 (sc), vehicle: Klucel (hydroxypropylcellulose) (HPC)
[9] = dose: 1200.0 mg/kg/injection, schedule: Q04DX003 (sc), vehicle: Klucel (hydroxypropylcellulose) (HPC)
[10] = dose: 2400.0 mg/kg/injection, schedule: Q04DX003 (sc), vehicle: Klucel (hydroxypropylcellulose) (HPC)
[11] = dose: 75.0 mg/kg/injection, schedule: Q04DX003 (sc), vehicle: Klucel (hydroxypropylcellulose) (HPC)

Cc1cc(Br)c2nsnc2c1[N+](=O)[O-]
T/C (dose: 150.0 mg/kg/injection, schedule: Q04DX003 (ip), vehicle: saline with Tween-80): 104 % of control | T/C (dose: 300.0 mg/kg/injection, schedule: Q04DX003 (ip), vehicle: saline with Tween-80): 74 % of control | T/C (dose: 600.0 mg/kg/injection, schedule: Q04DX003 (ip), vehicle: saline with Tween-80): 97 % of control | T/C (dose: 1200.0 mg/kg/injection, schedule: Q04DX003 (ip), vehicle: saline with Tween-80): 159 % of control

COc1cc(OC)c(NC(=O)ON2C(=O)c3ccccc3C2=O)cc1Cl
T/C [1]: 95 % of control | T/C (dose: 100.0 mg/kg/injection, schedule: Q04DX003 (sc), vehicle: saline with Tween-80): 103 % of control | T/C (dose: 200.0 mg/kg/injection, schedule: Q04DX003 (sc), vehicle: saline with Tween-80): 85 % of control | T/C (dose: 400.0 mg/kg/injection, schedule: Q04DX003 (sc), vehicle: saline with Tween-80): 114 % of control

Brc1ccc(C[N+]23CN4CN(CN(C4)C2)C3)cc1
T/C (dose: 75.0 mg/kg/injection, schedule: Q04DX003 (sc), vehicle: saline with Tween-80): 84 % of control | T/C [2]: 99 % of control | T/C [3]: 89 % of control | T/C [4]: 73 % of control

O=C1C=CN(C2OC(CO)C(O)C2O)C(=O)C1 (centres undefined)
T/C [5]: 92 % of control | T/C [6]: 41 % of control | T/C (dose: 200.0 mg/kg/injection, schedule: Q01DX010 (sc), vehicle: saline): 27 % of control | T/C (dose: 400.0 mg/kg/injection, schedule: Q01DX010 (sc), vehicle: saline): 75 % of control

COP12(OCCO1)SC(C(F)(F)F)=C(C(F)(F)F)S2
T/C (dose: 125.0 mg/kg/injection, schedule: Q04DX003 (sc), vehicle: saline with Tween-80): 119 % of control | T/C (dose: 250.0 mg/kg/injection, schedule: Q04DX003 (sc), vehicle: saline with Tween-80): 92 % of control

CN(C1=NS(=O)(=O)N=C(N(C)c2ccccc2)O1)c1ccccc1
T/C [7]: 102 % of control | T/C [8]: 110 % of control | T/C [9]: 113 % of control | T/C [10]: 106 % of control

CO[C@@H]1[C@H](O)CC[C@]2(CO2)[C@H]1[C@@]1(C)O[C@@H]1CC=C(C)C
T/C [2]: 150 % of control | T/C [3]: 79 % of control | T/C [4]: 99 % of control | T/C (dose: 1200.0 mg/kg/injection, schedule: Q04DX003 (sc), vehicle: saline with Tween-80): 96 % of control

Cc1cc2c(c3oc(C4(C)OC4C4OC4C)cc(=O)c13)C(=O)c1c(O)c(C3CC(C)(N(C)C)C(O)C(C)O3)cc(C3CC(N(C)C)C(O)C(C)O3)c1C2=O (centres undefined)
T/C (dose: 0.05 mg/kg/injection, schedule: Q04DX003 (sc), vehicle: saline): 77 % of control | T/C (dose: 0.1 mg/kg/injection, schedule: Q04DX003 (sc), vehicle: saline): 30 % of control

O=C1C2(Cl)C3(Cl)C4(Cl)C(Cl)(Cl)C5(Cl)[C@]3(Cl)C1(Cl)[C@]5(Cl)C24Cl (some centres undefined)
T/C (dose: 37.5 mg/kg/injection, schedule: Q04DX003 (sc), vehicle: Klucel (hydroxypropylcellulose) (HPC)): 120 % of control | T/C [11]: 121 % of control

CCCCCCCCCCCCCCCCCCOCC(COP(=O)([O-])OCC[N+](C)(C)C)OC (centres undefined)
T/C (dose: 150.0 mg/kg/injection, schedule: Q04DX003 (sc), vehicle: saline): 120 % of control

C=C(C)[C@]12CC(C)C34OC(/C=C\C=C\CCCCCCCCC)(O[C@@H]1[C@@H]3[C@@H]1O[C@]1(CO)[C@@H](O)[C@]1(O)C(=O)C(C)=C[C@@H]41)O2 (some centres undefined)
T/C (dose: 6.0 mg/kg/injection, schedule: Q04DX003 (sc), vehicle: distilled water + alcohol): 102 % of control | T/C (dose: 12.0 mg/kg/injection, schedule: Q04DX003 (sc), vehicle: distilled water + alcohol): 95 % of control

Nc1ccc2nc3ccc(N)cc3[n+](-c3ccccc3)c2c1
T/C (dose: 18.0 mg/kg/injection, schedule: Q04DX003 (sc), vehicle: saline): 65 % of control | T/C (dose: 36.0 mg/kg/injection, schedule: Q04DX003 (sc), vehicle: saline): 119 % of control | T/C (dose: 72.0 mg/kg/injection, schedule: Q04DX003 (sc), vehicle: saline): 72 % of control | T/C (dose: 144.0 mg/kg/injection, schedule: Q04DX003 (sc), vehicle: saline): 59 % of control

CN(C)C(=O)c1cccc(COc2ccc(N3C(N)=NC(N)=NC3(C)C)cc2Cl)c1
T/C (dose: 6.25 mg/kg/injection, schedule: Q01DX010 (sc), vehicle: saline): 104 % of control | T/C (dose: 12.5 mg/kg/injection, schedule: Q01DX010 (sc), vehicle: saline): 118 % of control | T/C (dose: 25.0 mg/kg/injection, schedule: Q01DX010 (sc), vehicle: saline): 49 % of control

Cc1cc(N(CCOS(C)(=O)=O)CCOS(C)(=O)=O)ccc1C=Nc1ccc(-c2nc(Cc3ccccc3)sc2C)cc1
T/C (dose: 50.0 mg/kg/injection, schedule: Q01DX010 (sc), vehicle: Klucel (hydroxypropylcellulose) (HPC)): -79 % of control | T/C (dose: 100.0 mg/kg/injection, schedule: Q01DX010 (sc), vehicle: Klucel (hydroxypropylcellulose) (HPC)): -88 % of control | T/C (dose: 200.0 mg/kg/injection, schedule: Q01DX010 (sc), vehicle: Klucel (hydroxypropylcellulose) (HPC)): -87 % of control

CC(C)(C)C1CCCCC1
T/C [7]: 101 % of control | T/C [8]: 89 % of control | T/C [9]: 75 % of control | T/C [10]: 65 % of control

CCN(CC)CCNc1ccc(C)c2sc3ccccc3c(=O)c12
T/C [5]: 79 % of control | T/C [6]: 53 % of control

COc1cccc2c1C(=O)c1c(O)c3c(c(O)c1C2=O)C[C@@](O)(/C(C)=N/NC(=O)c1cccc([N+](=O)[O-])c1)C[C@@H]3OC1CC(N)C(O)C(C)O1 (some centres undefined)
T/C (dose: 4.0 mg/kg/injection, schedule: Q01DX010 (sc), vehicle: water): 89 % of control | T/C (dose: 8.0 mg/kg/injection, schedule: Q01DX010 (sc), vehicle: water): 43 % of control | T/C (dose: 16.0 mg/kg/injection, schedule: Q01DX010 (sc), vehicle: water): 104 % of control

N#Cc1ccc(NN=O)nc1
T/C (dose: 12.5 mg/kg/injection, schedule: Q04DX003 (ip), vehicle: water): 110 % of control | T/C (dose: 25.0 mg/kg/injection, schedule: Q04DX003 (ip), vehicle: water): 18 % of control | T/C (dose: 50.0 mg/kg/injection, schedule: Q04DX003 (ip), vehicle: water): 18 % of control | T/C (dose: 100.0 mg/kg/injection, schedule: Q04DX003 (ip), vehicle: water): 20 % of control

O=NNc1ccc(Cl)cn1
T/C (dose: 18.7 mg/kg/injection, schedule: Q04DX003 (ip), vehicle: water): 24 % of control | T/C (dose: 37.5 mg/kg/injection, schedule: Q04DX003 (ip), vehicle: water): -51 % of control

C1OC1CN1CCN(CC2CO2)CC1 (centres undefined)
T/C (dose: 8.0 mg/kg/injection, schedule: Q01DX010 (sc), vehicle: suspension in saline): 289 % of control | T/C (dose: 16.0 mg/kg/injection, schedule: Q01DX010 (sc), vehicle: saline): 8 % of control and 33 % of control | T/C (dose: 16.0 mg/kg/injection, schedule: Q01DX010 (sc), vehicle: suspension in saline): 98 % of control

Cc1cc(NCCCCCCCCNc2cc(C)nc3cc(N(C)C)ccc23)c2ccc(N(C)C)cc2n1
T/C (dose: 150.0 mg/kg/injection, schedule: Q04DX003 (sc), vehicle: distilled water + Tween-80 + alcohol): 67 % of control | T/C (dose: 300.0 mg/kg/injection, schedule: Q04DX003 (sc), vehicle: distilled water + Tween-80 + alcohol): 74 % of control | T/C (dose: 600.0 mg/kg/injection, schedule: Q04DX003 (sc), vehicle: distilled water + Tween-80 + alcohol): 43 % of control | T/C (dose: 1200.0 mg/kg/injection, schedule: Q04DX003 (sc), vehicle: distilled water + Tween-80 + alcohol): 71 % of control

C=C1N(C)c2ccccc2C1(C)C
T/C (dose: 25.0 mg/kg/injection, schedule: Q04DX003 (sc), vehicle: saline with Tween-80): 100 % of control | T/C [1]: 75 % of control

CC1(O)CC23CC(O)C4(O)C(CC(O)C4(C)C)C(C)(O)C2CCC1C3O (centres undefined)
T/C (dose: 0.25 mg/kg/injection, schedule: Q04DX003 (sc), vehicle: Klucel (hydroxypropylcellulose) (HPC)): 162 % of control

ClCCCN1CCCCC1CCl (centres undefined)
T/C (dose: 12.5 mg/kg/injection, schedule: Q04DX003 (sc), vehicle: saline): 51 % of control | T/C (dose: 25.0 mg/kg/injection, schedule: Q04DX003 (sc), vehicle: saline): 1 % of control | T/C (dose: 50.0 mg/kg/injection, schedule: Q04DX003 (sc), vehicle: saline): 3 % of control

COC1CC2C=C(C)/C=C/C=C/C(=O)NC(c3ccccc3)C/C=C/CCC(O)CC(=O)C2=C1O (centres undefined)
T/C [11]: 41 % of control | T/C (dose: 150.0 mg/kg/injection, schedule: Q04DX003 (sc), vehicle: Klucel (hydroxypropylcellulose) (HPC)): 71 % of control | T/C [7]: 50 % of control
